From patent publication EP3797781A1, “USE OF EC-7072 AND SYNERGIC COMPOSITIONS THEREOF IN TREATMENT OF CHRONIC LYMPHOCYTIC LEUKEMIA” (priority 2019, dated 2021)

Tests used:
[1] = tested on: isolated T cells from patients with CLL; experiment: qPCR analysis of BCL2 expression in isolated T cells; format: cell-based, human; settings: 200 nM, 6 hours; n = 3
Method: Isolated leukemia cells from patients with CLL were incubated with EC-7072 (200 nM) or DMSO for 6 hours. Total RNA was extracted using RNeasy Mini Kit (Qiagen). 2 µg total RNA were used for cDNA synthesis using High-Capacity cDNA Reverse Transcription Kit (Applied Biosystems). Quantitative RT-PCR was performed using SYBR Green PCR Master Mix (Applied Biosystems) in a 7300 Real-Time PCR System and each sample was analyzed in triplicate. Table 1. Primers used in qPCR
The dysregulation of BCL2 expression in primary CLL by EC-7072 was evaluated by: • (i) incubating isolated CLL cells (n = 6) from patients with CLL following treatment with EC-7072 (200 nM) for 6 hours and extracting total RNA. Relative expression of BLC2 was determined by qPCR to obtain the mean relative expression to the control (DMSO) condition (Figure 6F); • (ii) incubating isolated CLL cells (n = 6) following treatment with 200 nM EC-7072 for 12 and 18 hours. BCL2 levels were evaluated by intracellular flow cytometry (Figure 6G); • (iii) incubating isolated T cells (n = 3) from patients with CLL following treatment with EC-7072 (200 nM) for 6 hours and extracting total RNA. […] T-cell death and apoptosis were assessed by DiOC6(3)/PI staining to obtain percentages of viable [DiOC6(3)^+] cells and the mean percentages of apoptotic [DiOC6(3)^low PI^-] and dead [PI^+] cells.

OP9 cells = experiment: Viability of OP9 stromal cells exposed to EC-7072; format: cell-based; settings: exposure to EC-7072 for 24 hours

## CO[C@@H]([C@@H]1Cc2cc3cc(O[C@H]4C[C@@H](O[C@H]5C[C@@H](O)[C@H](O)[C@@H](C)O5)[C@H](O)[C@@H](C)O4)c(C)c(O)c3c(O)c2C(=O)[C@H]1O[C@H]1C[C@@H](O[C@H]2C[C@@H](O[C@H]3C[C@](C)(O)[C@H](O)[C@@H](C)O3)[C@@H](O)[C@@H](C)O2)[C@H](O)[C@@H](C)O1)[C@@H](O)C(C)=O [EC-7072, mithramycin SK]
[1]
  BCL2 expression in T cells: not modulated
OP9 cells
  viability of OP9 cells: did not affect their viability
